Where two headings read alike, the source gives them in different places.
Columns and labels:
RET-V804M = RET-V804M (Homo sapiens, UniProt P07949, V804M); assay: RET inhibition experiment (HTRF KinEASE-TK kit), mutant RET-V804M; format: biochemical; settings: for IC50: read-out: The IC50 (nM) for inhibiting V804M; for inhibition at 0.01 µM / inhibition at 0.1 µM: read-out: Inhibition rate on RET-V804M; for inhibition at 0.1 µM: 100 nM (Table 2)
Method: Experimental method: According to the instructions of the HTRF KinEASE-TK kit (Cisbio), the compounds of the present disclosure were tested for their inhibitory effects on the activity of wild-type RET enzyme, mutant RET enzyme (RET-V804M, RET-V804L, and RET-M918T) and fusion-type RET enzyme (RET-CCDCl6). After pre-incubation of different RET enzymes and different concentrations of the test compounds at room temperature for 30 min, a substrate and adenosine triphosphate (ATP) were added to initiate the reaction. After incubation at room temperature for 40 min, TK antibody-cryptate and streptavidin-XL665 were added, and the test was performed after incubation at room temperature for 45 min. With the solvent group (DMSO) as the negative control and the buffer group (without RET enzyme) as the blank control, the relative inhibitory activity percentages (i.e., inhibition rates) of different concentrations of the compounds were computed as per the following formula:
(§1) Relative inhibitory activity percentage=1−(compound group of different concentrations−blank control)/(negative control−blank control)*100%
(§2) The relative inhibitory activity percentages of different concentrations of the compounds were plotted with respect to the compound concentrations, and the curve was fitted according to a four-parameter model to compute the IC50 value as per the following formula:
(§3) y=min+(max−min)/(1+(x/IC50)^(−Hillslope))
(§4) where y is the relative inhibitory activity percentage, max is the maximum value of the fitted curve, min is the minimum value of the fitted curve, x is the logarithmic concentration of the compound, and Hillslope is the slope of the curve.

VEGFR2 = VEGFR2 (Homo sapiens, UniProt P35968); assay: VEGFR2 inhibition experiment (HTRF KinEASE-TK kit); format: biochemical; settings: for inhibition at 0.3 µM: 300 nM
Method: Experimental method: According to the instructions of the HTRF KinEASE-TK kit (Cisbio), the compounds of the present disclosure were tested for their inhibitory effects on the VEGFR2 enzyme activity. After pre-incubation of the VEGFR2 enzyme and different concentrations of test compounds at room temperature for 30 min, a substrate and adenosine triphosphate (ATP) were added to initiate the reaction. After incubation at room temperature for 40 min, TK antibody-cryptate and streptavidin-XL665 were added, and the test was performed after incubation at room temperature for 45 min. With the solvent group (DMSO) as the negative control and the buffer group (without VEGFR2 enzyme) as the blank control, the relative inhibitory activity percentages (i.e., inhibition rates) of different concentrations of the compounds were computed as per the following formula:
as §1, §2, §3, §4

[1] = read-out: Inhibition rate on VEGFR2
[2] = 100 nM, read-out: Inhibition rate on VEGFR2

Sequence of RET-V804M (P07949 29-1114 V804M): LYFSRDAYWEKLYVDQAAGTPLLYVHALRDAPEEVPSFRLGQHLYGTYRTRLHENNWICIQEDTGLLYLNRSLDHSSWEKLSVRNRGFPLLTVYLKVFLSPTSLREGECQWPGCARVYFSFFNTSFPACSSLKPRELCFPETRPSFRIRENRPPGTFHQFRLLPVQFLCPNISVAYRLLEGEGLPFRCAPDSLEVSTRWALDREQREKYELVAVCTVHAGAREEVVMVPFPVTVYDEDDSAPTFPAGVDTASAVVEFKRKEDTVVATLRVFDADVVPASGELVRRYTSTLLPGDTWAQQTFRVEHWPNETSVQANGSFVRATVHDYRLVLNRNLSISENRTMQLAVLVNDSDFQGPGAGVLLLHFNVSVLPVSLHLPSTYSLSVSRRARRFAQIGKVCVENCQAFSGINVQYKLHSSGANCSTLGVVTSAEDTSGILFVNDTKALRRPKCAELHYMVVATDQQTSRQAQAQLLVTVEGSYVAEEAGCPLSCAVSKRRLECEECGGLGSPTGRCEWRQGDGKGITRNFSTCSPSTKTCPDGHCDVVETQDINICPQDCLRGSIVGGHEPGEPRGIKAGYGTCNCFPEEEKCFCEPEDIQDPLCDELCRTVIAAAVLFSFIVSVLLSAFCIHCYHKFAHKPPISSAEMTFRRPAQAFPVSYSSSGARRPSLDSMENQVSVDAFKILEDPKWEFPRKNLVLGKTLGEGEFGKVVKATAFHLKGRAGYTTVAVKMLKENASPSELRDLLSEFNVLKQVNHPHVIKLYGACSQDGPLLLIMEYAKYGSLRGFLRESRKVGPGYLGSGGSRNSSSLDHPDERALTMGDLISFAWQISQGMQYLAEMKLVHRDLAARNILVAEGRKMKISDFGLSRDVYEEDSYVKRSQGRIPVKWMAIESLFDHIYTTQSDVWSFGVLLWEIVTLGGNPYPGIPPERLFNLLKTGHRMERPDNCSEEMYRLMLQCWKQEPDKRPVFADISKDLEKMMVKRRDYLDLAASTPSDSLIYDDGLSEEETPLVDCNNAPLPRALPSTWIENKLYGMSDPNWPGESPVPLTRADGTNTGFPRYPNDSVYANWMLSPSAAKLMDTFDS
Sequence of VEGFR2 (P35968 20-1356, species assumed): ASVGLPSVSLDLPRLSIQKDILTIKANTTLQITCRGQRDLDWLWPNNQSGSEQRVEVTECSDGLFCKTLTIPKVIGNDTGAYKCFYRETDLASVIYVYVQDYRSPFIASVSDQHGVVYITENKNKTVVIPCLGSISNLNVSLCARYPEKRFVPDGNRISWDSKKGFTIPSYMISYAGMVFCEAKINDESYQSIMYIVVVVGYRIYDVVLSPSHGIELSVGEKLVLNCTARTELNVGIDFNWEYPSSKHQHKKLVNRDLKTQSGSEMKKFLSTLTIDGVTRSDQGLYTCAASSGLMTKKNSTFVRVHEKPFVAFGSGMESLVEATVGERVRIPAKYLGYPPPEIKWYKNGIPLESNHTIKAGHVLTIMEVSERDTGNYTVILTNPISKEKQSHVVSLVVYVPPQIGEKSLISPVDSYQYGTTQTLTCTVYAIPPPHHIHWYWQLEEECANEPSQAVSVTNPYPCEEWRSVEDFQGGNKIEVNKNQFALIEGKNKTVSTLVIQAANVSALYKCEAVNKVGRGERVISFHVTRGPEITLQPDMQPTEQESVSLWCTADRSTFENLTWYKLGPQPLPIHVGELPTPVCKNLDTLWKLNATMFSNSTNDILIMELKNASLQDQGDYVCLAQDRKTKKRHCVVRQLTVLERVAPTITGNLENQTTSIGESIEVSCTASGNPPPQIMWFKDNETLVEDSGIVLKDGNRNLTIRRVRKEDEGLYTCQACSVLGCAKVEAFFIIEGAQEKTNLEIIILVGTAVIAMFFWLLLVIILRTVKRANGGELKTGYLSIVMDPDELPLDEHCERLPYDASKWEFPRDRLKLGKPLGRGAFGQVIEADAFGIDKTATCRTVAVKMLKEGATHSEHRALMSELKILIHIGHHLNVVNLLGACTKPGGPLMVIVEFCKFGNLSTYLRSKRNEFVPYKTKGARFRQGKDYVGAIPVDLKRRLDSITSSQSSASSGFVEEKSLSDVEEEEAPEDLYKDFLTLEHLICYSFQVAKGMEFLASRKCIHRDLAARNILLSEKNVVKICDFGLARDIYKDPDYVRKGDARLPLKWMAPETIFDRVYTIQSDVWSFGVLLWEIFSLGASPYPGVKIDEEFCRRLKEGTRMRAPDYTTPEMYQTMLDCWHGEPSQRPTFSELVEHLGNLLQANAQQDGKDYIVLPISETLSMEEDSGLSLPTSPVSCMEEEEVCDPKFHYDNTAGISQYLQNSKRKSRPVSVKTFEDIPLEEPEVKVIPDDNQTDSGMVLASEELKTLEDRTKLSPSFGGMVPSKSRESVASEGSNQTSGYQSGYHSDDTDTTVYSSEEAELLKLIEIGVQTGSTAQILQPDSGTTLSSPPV

Question: Which IC50 (RET-V804M) does the source give for `Cc1cc(Nc2cc(C)[nH]n2)nc(-c2ccc(N3C[C@H]4C[C@@H](C3)N4C(C)c3ccc(-n4cc(F)cn4)nc3)nc2)n1` (single isomer, unassigned) [Compound 52-2] here?
Answer: Its IC50 is 13 ± 2.34 nM.

Question: And the inhibition at 0.3 µM (VEGFR2; [1])?
Answer: The inhibition at 0.3 µM was 12%.

Question: With `Cc1cc(Nc2cc(C)[nH]n2)nc(-c2ccc(N3CC4CC(C3)N4C(C)c3ccc(-n4cccn4)nc3)nc2)n1` (single isomer, unassigned) [Compound 125-2] as the molecule, how does the inhibition at 0.01 µM (RET-V804M; 10 nM (Table 2)) read?
Answer: Its inhibition at 0.01 µM is 82%.

Question: What about the inhibition at 0.3 µM (VEGFR2; [1]) of the same molecule?
Answer: Its inhibition at 0.3 µM is 63%.

Question: With `Cc1cc(Nc2cc(C)[nH]n2)nc(-c2ccc(N3CC4CC(C3)N4Cc3ccc(-n4cc(F)cn4)nc3)nc2)c1` [Compound 6, 6′-(6-((6-(4-fluoro-1H-pyrazol-1-yl)pyridin-3-yl)methyl)-3,6-diazabicyclo[3.1.1]heptan-3-yl)-4-methyl-N-(5-methyl-1H-pyrazol-3-yl)-[2,3′-dipyridyl]-6-amine] as the molecule, how does the inhibition at 0.01 µM (RET-V804M; 10 nM (Table 2)) read?
Answer: The inhibition at 0.01 µM was 83%.

Question: What about the inhibition at 0.1 µM (VEGFR2; [2]) of the same molecule?
Answer: The inhibition at 0.1 µM was -11%.

Question: What does the source list for `COc1ccc(-c2ccc(CN3C4CC3CN(c3ccc(-c5nc(C)cc(Nc6cc(C)[nH]n6)n5)cn3)C4)cn2)cn1` [Compound 7, 2-(6-(6-((6′-methoxy-[2,3′-dipyridyl]-5-yl)methyl)-3,6-diazabicyclo[3.1.1]heptan-3-yl)pyridin-3-yl)-6-methyl-N-(5-methyl-1H-pyrazol-3-yl)pyrimidin-4-amine]?
Answer: inhibition at 0.01 µM (RET-V804M; 10 nM (Table 2)): 46%; inhibition at 0.1 µM (VEGFR2; [2]): 16%

Question: Which inhibition at 0.01 µM (RET-V804M; 10 nM (Table 2)) does the source give for `Cc1cc(Nc2cc(C)[nH]n2)nc(-c2ccc(N3CC4CC(C3)N4Cc3ccc(-c4cc(F)cnc4C)nc3)nc2)n1` [Compound 8, 2-(6-(6-((5′-fluoro-2′-methyl-[2,3′-dipyridyl]-5-yl)methyl)-3,6-diazabicyclo[3.1.1]heptan-3-yl)pyridin-3-yl)-6-methyl-N-(5-methyl-1H-pyrazol-3-yl)pyrimidin-4-amine] here?
Answer: The inhibition at 0.01 µM was 46%.

Question: What about the inhibition at 0.3 µM (VEGFR2; [1]) of the same molecule?
Answer: The inhibition at 0.3 µM was 5%.

Question: How did the IC50 (RET-V804M) turn out when `Cc1cc(Nc2cc(C)[nH]n2)nc(-c2ccc(N3CC4CC(C3)N4Cc3ccc(-n4nccc4C)nc3)nc2)n1` [Compound 9, 6-methyl-2-(6-(6-((6-(5-methyl-1H-pyrazol-1-yl)pyridin-3-yl)methyl)-3,6-diazabicyclo[3.1.1]heptan-3-yl)pyridin-3-yl)-N-(5-methyl-1H-pyrazol-3-yl)pyrimidin-4-amine] was run?
Answer: Its IC50 is 5.43 ± 0.91 nM.

Question: What about the inhibition at 0.3 µM (VEGFR2; [1]) of the same molecule?
Answer: The inhibition at 0.3 µM was 69%.

Question: Which IC50 (RET-V804M) does the source give for `Cc1cc(Nc2cc(C3CC3)[nH]n2)nc(-c2ccc(N3CC4CC(C3)N4Cc3ccc(-n4cc(F)cn4)nc3)nc2)n1` [Compound 10, N-(5-cyclopropyl-1H-pyrazol-3-yl)-2-(6-(6-((6-(4-fluoro-1H-pyrazol-1-yl)pyridin-3-yl)methyl)-3,6-diazabicyclo[3.1.1]heptan-3-yl)pyridin-3-yl)-6-methylpyrimidin-4-amine] here?
Answer: The IC50 was 3.97 ± 0.3 nM.

Question: And the inhibition at 0.3 µM (VEGFR2; [1])?
Answer: The inhibition at 0.3 µM was 69%.

Question: `Cc1cc(Nc2cc(C)[nH]n2)nc(-c2ccc(N3CC4CC(C3)N4Cc3ccc(-n4nc(C)cc4C)nc3)nc2)n1` [Compound 11, 2-(6-(6-((6-(3,5-dimethyl-1H-pyrazol-1-yl)pyridin-3-yl)methyl)-3,6-diazabicyclo[3.1.1]heptan-3-yl)pyridin-3-yl)-6-methyl-N-(5-methyl-1H-pyrazol-3-yl)pyrimidin-4-amine] was tested. Which IC50 (RET-V804M) did it give?
Answer: Its IC50 is 7.22 ± 0.58 nM.

Question: What about the IC50 (VEGFR2; read-out: IC50 for inhibiting VEGFR2) of the same molecule?
Answer: The IC50 was 158 ± 25.1 nM.

Question: With `Cc1cc(Nc2cc(C)[nH]n2)nc(-c2ccc(N3CC4CC(C3)N4Cc3ccc(-n4nccc4C(C)C)nc3)nc2)n1` [Compound 12, 2-(6-(6-((6-(5-isopropyl-1H-pyrazol-1-yl)pyridin-3-yl)methyl)-3,6-diazabicyclo[3.1.1]heptan-3-yl)pyridin-3-yl)-6-methyl-N-(5-methyl-1H-pyrazol-3-yl)pyrimidin-4-amine] as the molecule, how does the IC50 (RET-V804M) read?
Answer: Its IC50 is 6.94 ± 0.78 nM.

Question: And the inhibition at 0.3 µM (VEGFR2; [1])?
Answer: The inhibition at 0.3 µM was 62%.

Question: How did the inhibition at 0.1 µM (RET-V804M) turn out when `Cc1cc(Nc2cc(C)[nH]n2)nc(-c2ccc(N3CC4CC(C3)N4Cc3cnc(C)s3)nc2)n1` [Compound 15, 6-methyl-N-(5-methyl-1H-pyrazol-3-yl)-2-(6-(6-((2-methylthiazol-5-yl)methyl)-3,6-diazabicyclo[3.1.1]heptan-3-yl)pyridin-3-yl)pyrimidin-4-amine] was run?
Answer: The inhibition at 0.1 µM was 91%.

Question: And the inhibition at 0.1 µM (VEGFR2; [2])?
Answer: Its inhibition at 0.1 µM is 29%.

Question: With `COc1ccc(CN2CCN(c3ccc(-c4nc(C)cc(Nc5cc(C)[nH]n5)n4)cn3)CC2)cc1` [Compound 23, 2-(6-(4-(4-methoxybenzyl)piperazin-1-yl)pyridin-3-yl)-6-methyl-N-(5-methyl-1H-pyrazol-3-yl)pyrimidin-4-amine] as the molecule, how does the inhibition at 0.01 µM (RET-V804M) read?
Answer: The inhibition at 0.01 µM was 47%.

Question: And the inhibition at 0.1 µM (VEGFR2; [1])?
Answer: Its inhibition at 0.1 µM is -10%.

Question: Which results are given for `Cc1cc(Nc2cc(C)[nH]n2)nc(-c2ccc(N3CC4CC(C3)N4Cc3ccc(-n4cc5c(n4)CCC5)nc3)nc2)n1` [Compound 25]?
Answer: IC50 (RET-V804M): 6.29 ± 0.9 nM; inhibition at 0.3 µM (VEGFR2; [1]): 53%

Question: What does the source list for `Cc1cc(Nc2cc(C)[nH]n2)nc(-c2ccc(N3CC4CC(C3)N4C(=O)c3ccc(-n4cc(F)cn4)nc3)nc2)n1` [Compound 26, (6-(4-fluoro-1H-pyrazol-1-yl)pyridin-3-yl)(3-(5-(4-methyl-6-((5-methyl-1H-pyrazol-3-yl)-amino)pyrimidin-2-yl)pyridin-2-yl)-3,6-diazabicyclo[3.1.1]heptan-6-yl)methanone]?
Answer: inhibition at 0.01 µM (RET-V804M; 10 nM (Table 2)): 83%; inhibition at 0.3 µM (VEGFR2; [1]): 64%

Question: How did the inhibition at 0.01 µM (RET-V804M; 10 nM (Table 2)) turn out when `Cc1cc(Nc2cc(C)[nH]n2)nc(-c2ccc(N3CC4CC(C3)N4Cc3ccc(-n4nccc4OC4CCC4)nc3)nc2)n1` [Compound 27, 2-(6-(6-((6-(5-cyclobutoxy-1H-pyrazol-1-yl)pyridin-3-yl)methyl)-3,6-diazabicyclo[3.1.1]heptan-3-yl)pyridin-3-yl)-6-methyl-N-(5-methyl-1H-pyrazol-3-yl)pyrimidin-4-amine] was run?
Answer: Its inhibition at 0.01 µM is 87%.

Question: And the inhibition at 0.03 µM (VEGFR2; 30 nM, read-out: Inhibition rate on VEGFR2)?
Answer: The inhibition at 0.03 µM was 23%.

Question: For `Cc1cc(Nc2cc(C)[nH]n2)nc(-c2ccc(N3CC4CC(C3)N4C(C)c3ccc(-n4cc(F)cn4)nc3)nc2)n1` (centres unmarked) [Compound 52, 2-(6-(6-(1-(6-(4-fluoro-1H-pyrazol-1-yl)pyridin-3-yl)ethyl)-3,6-diazabicyclo[3.1.1]heptan-3-yl)pyridin-3-yl)-6-methyl-N-(5-methyl-1H-pyrazol-3-yl)pyrimidin-4-amine], which inhibition at 0.1 µM (VEGFR2; [2]) is on record?
Answer: The inhibition at 0.1 µM was -5%.

Question: Which inhibition at 0.1 µM (RET-V804M) does the source give for `COc1ccc(CC(=O)N2CCN(c3ccc(-c4nc(C)cc(Nc5cc(C)[nH]n5)n4)cn3)CC2)cn1` [Compound 111, 2-(6-methoxypyridin-3-yl)-1-(4-(5-(4-methyl-6-((5-methyl-1H-pyrazol-3-yl)amino)pyrimidin-2-yl)pyridin-2-yl)piperazin-1-yl)ethan-1-one] here?
Answer: The inhibition at 0.1 µM was 46%.

Question: Which inhibition at 0.1 µM (RET-V804M) does the source give for `Cc1cc(Nc2cc(C)[nH]n2)nc(-c2ccc(N3CC4CC(C3)N4Cc3ccc(C#N)nc3)nc2)n1` [Compound 117, 5-((3-(5-(4-methyl-6-((5-methyl-1H-pyrazol-3-yl)-amino)pyrimidin-2-yl)pyridin-2-yl)-3,6-diazabicyclo[3.1.1]heptan-6-yl)methyl)-2-cyanopyridine] here?
Answer: The inhibition at 0.1 µM was 76%.

Question: For `Cc1cc(Nc2cc(C)[nH]n2)nc(-c2ccc(N3CC4CC(C3)N4Cc3ccc(C(F)(F)F)nc3)nc2)n1` [Compound 118, 6-methyl-N-(5-methyl-1H-pyrazol-3-yl)-2-(6-(6-((6-(trifluoromethyl)pyridin-3-yl)methyl)-3,6-diazabicyclo[3.1.1]heptan-3-yl)pyridin-3-yl)pyrimidin-4-amine], which inhibition at 0.1 µM (RET-V804M) is on record?
Answer: Its inhibition at 0.1 µM is 74%.

Question: For `Cc1cc(Nc2cc(C)[nH]n2)nc(-c2ccc(N3CC4CC(C3)N4C(C)c3ccc(-n4cccn4)nc3)nc2)n1` (centres unmarked) [Compound 125, 2-(6-(6-(1-(6-(1H-pyrazol-1-yl)pyridin-3-yl)ethyl)-3,6-diazabicyclo[3.1.1]heptan-3-yl)pyridin-3-yl)-6-methyl-N-(5-methyl-1H-pyrazol-3-yl)pyrimidin-4-amine], which inhibition at 0.3 µM (VEGFR2; [1]) is on record?
Answer: Its inhibition at 0.3 µM is 44%.

Question: With `Cc1cc(Nc2cc(C)[nH]n2)nc(-c2ccc(N3CC4CC(C3)N4Cc3ccc(-n4cc(CF)cn4)nc3)nc2)n1` [Compound 126, 2-(6-(6-((6-(4-fluoromethyl-1H-pyrazol-1-yl)pyridin-3-yl)methyl)-3,6-diazabicyclo[3.1.1]heptan-3-yl)pyridin-3-yl)-6-methyl-N-(5-methyl-1H-pyrazol-3-yl)pyrimidin-4-amine] as the molecule, how does the inhibition at 0.1 µM (RET-V804M) read?
Answer: The inhibition at 0.1 µM was 82%.

Question: With `Cc1cc(Nc2cc(C)[nH]n2)nc(-c2ccc(N3CC4CC(C3)N4Cc3ccc(-n4cc(CO)cn4)nc3)nc2)n1` [Compound 127, (1-(5-((3-(5-(4-methyl-6-((5-methyl-1H-pyrazol-3-yl)amino)pyrimidin-2-yl)pyridin-2-yl)-3,6-diazabicyclo[3.1.1]heptan-6-yl)methyl)pyridin-2-yl)-1H-pyrazol-4-yl)methanol] as the molecule, how does the inhibition at 0.1 µM (RET-V804M) read?
Answer: Its inhibition at 0.1 µM is 84%.

Reference: patent publication US20220144847A1, “HETEROCYCLIC COMPOUND, PHARMACEUTICAL COMPOSITION COMPRISING SAME, PREPARATION METHOD THEREFOR, AND USE THEREOF” (Sichuan Kelun-Biotech Biopharmaceutical Co., Ltd., priority 2019, published 2022)
